Experimental data as given in PMC3618943, “Interaction of Natural Dietary and Herbal Anionic Compounds and Flavonoids with Human Organic Anion Transporters 1 (SLC22A6), 3 (SLC22A8), and 4 (SLC22A11)” (Evidence-based Complementary and Alternative Medicine : eCAM, 2013).
Entries after “also recorded” stand apart in the source; their conditions may differ. Counter-ions that a name gives are not always drawn. Like-named read-outs stand apart in the source and are kept apart here.

Experiments:
hOAT1 (SLC22A6) [1] = biological target: T1, hOAT1 (SLC22A6) (Homo sapiens, UniProt Q4U2R8); test: Inhibition of hOAT1-mediated [3H]PAH uptake, cell accumulation assay in CHO-hOAT1 cells; type: cell-based; details: dose-response 0.01–500 μM, 1 μM [3H]PAH, 1 min uptake, mean ± S.E.M., read-out: IC50 on hOAT1-mediated PAH transport
T1 construct: expressed in transfected cells
T1 sequence (Q4U2R8 1-550 isoform Q4U2R8-2): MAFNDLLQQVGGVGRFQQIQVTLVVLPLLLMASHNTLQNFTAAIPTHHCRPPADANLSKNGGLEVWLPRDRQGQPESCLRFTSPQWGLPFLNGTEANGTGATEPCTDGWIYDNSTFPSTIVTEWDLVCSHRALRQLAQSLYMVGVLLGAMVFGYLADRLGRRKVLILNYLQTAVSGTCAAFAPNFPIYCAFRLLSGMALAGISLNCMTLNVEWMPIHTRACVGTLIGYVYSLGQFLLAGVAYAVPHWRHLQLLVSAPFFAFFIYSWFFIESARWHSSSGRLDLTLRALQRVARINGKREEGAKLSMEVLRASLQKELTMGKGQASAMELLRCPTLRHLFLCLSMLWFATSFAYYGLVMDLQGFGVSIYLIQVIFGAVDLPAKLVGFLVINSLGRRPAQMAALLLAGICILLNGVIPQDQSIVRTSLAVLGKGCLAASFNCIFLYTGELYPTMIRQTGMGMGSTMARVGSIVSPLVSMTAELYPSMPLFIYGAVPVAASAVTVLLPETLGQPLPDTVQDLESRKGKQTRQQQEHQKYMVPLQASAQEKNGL

hOAT1 (SLC22A6) [2] = biological target: T1, hOAT1 (SLC22A6); test: as above; type: cell-based; details: for Ki: assuming competitive inhibition, 1 min uptake, read-out: inhibition constant Ki for hOAT1; for Ki / effect on hOAT1-mediated PAH uptake (in words): 1 μM [3H]PAH
Experimental: (§1) The cell accumulation assay protocol was performed as described in our recent publications with minor modifications. In brief, 2 × 10^5 cells/well were seeded in 24-well tissue culture plates and grown in the absence of antibiotics for two days. For transport experiments cells were preincubated in transport buffer without substrates or inhibitors for 10 min after which time the buffer was replaced with 400 μL of fresh transport buffer containing 1 μM [^3H]PAH (0.5 μCi/mL) or [^3H]ES (0.25 μCi/mL) with or without test compounds. After incubation for times specified in the figure legends, cellular uptake was quenched by quickly rinsing each well three times with fresh ice-cold transport buffer. Cells were lysed with 1 M NaOH and radioactivity was measured with a liquid scintillation counter and reported as picomoles of substrate per milligram total protein. All intracellular uptake data were corrected for background accumulation in corresponding empty vector transfected control cells. Kinetic calculations were performed using GraphPad Prism Software version 5.0 (GraphPad Software Inc., San Diego, CA). The half maximal inhibitory concentrations (IC50) and inhibitory constants (K i) were calculated using nonlinear regression with the appropriate models. Results were confirmed by repeating all experiments at least three times with triplicate wells for each data point.
Ten-minute uptake of [^3H]PAH (1 μM) was measured in CHO-hOAT1 cells in the absence and presence of test compounds (50 μM) or probenecid (1000 μM). Data represent hOAT1-mediated transport specifically, that is, data have been corrected for background PAH accumulation measured in empty vector transfected cells. Values are mean ± S.D. of triplicate values from a representative experiment. ** denotes P < 0.01, and *** denotes P < 0.001 as determined by one-way ANOVA followed by Dunnett's t-test.
One-minute uptake of [^3H]PAH (1 μM) in CHO-hOAT1 cells was measured in the presence of increasing concentrations (10^−7 to 5 × 10^−4 M) of test compounds. Data were corrected by subtracting background PAH accumulation measured in empty vector transfected cells. IC50 values were determined with nonlinear regression and the “log(inhibitor) versus response” model using GraphPad Prism software. Experiments were repeated three times with triplicate samples and graphs shown are from representative experiments with values plotted as mean ± S.D. (n = 3). The data were used to generate mean IC50 ± S.E.M. estimates.

hOAT3 (SLC22A8) [3] = biological target: T2, hOAT3 (SLC22A8) (Homo sapiens, UniProt Q8TCC7); test: Inhibition of hOAT3-mediated [3H]ES uptake, cell accumulation assay in HEK-hOAT3 cells; type: cell-based; details: 10 min uptake; for inhibition at 50 µM / effect on hOAT3-mediated ES uptake (in words): 50 μM test compound; for inhibition at 50 µM: 1 μM [3H]ES (50-fold excess)
T2 construct: expressed in transfected cells
T2 sequence (Q8TCC7 1-542): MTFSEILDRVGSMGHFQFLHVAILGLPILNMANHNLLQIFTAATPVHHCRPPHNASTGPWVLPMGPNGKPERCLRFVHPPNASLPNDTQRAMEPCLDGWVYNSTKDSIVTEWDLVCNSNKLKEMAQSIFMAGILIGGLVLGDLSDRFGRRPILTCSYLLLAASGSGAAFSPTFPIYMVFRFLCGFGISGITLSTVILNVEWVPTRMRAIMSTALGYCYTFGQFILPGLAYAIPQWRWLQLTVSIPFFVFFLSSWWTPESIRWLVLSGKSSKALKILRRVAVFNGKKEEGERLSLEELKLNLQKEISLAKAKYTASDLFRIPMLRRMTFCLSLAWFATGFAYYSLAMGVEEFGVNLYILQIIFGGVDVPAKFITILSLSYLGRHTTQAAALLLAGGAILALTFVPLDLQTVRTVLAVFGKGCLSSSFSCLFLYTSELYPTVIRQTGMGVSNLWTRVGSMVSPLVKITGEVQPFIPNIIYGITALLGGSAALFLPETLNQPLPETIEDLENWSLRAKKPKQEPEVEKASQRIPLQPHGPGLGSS
Experimental: (§2) Derivation and culture of stably transfected Chinese hamster ovary (CHO) cells expressing hOAT1 (CHO-hOAT1) and hOAT4 (CHO-hOAT4), stably transfected human embryonic kidney 293 (HEK) cells expressing hOAT3 (HEK-hOAT3), and their corresponding empty vector transfected background control cell lines, have been described previously.
as §1, with “point. […]” for “point.”
Figure 4 Inhibitory effects of the nine test compounds on hOAT3-mediated ES uptake. Ten-minute uptake of [^3H]ES (1 μM) was measured in HEK-hOAT3 cells in the absence and presence of test compounds (50 μM) or probenecid (1000 μM). Data represent hOAT3-mediated transport specifically, that is, data have been corrected for background ES accumulation measured in empty vector transfected cells. Values are mean ± S.D. of triplicate values from a representative experiment. * denotes P < 0.05, ** denotes P < 0.01, and *** denotes p < 0.001 as determined by one-way ANOVA followed by Dunnett's t-test.

hOAT4 (SLC22A11) = biological target: T3, hOAT4 (SLC22A11) (Homo sapiens, UniProt Q9NSA0); test: Inhibition of hOAT4-mediated [3H]ES uptake, cell accumulation assay in CHO-hOAT4 cells; type: cell-based
T3 construct: expressed in transfected cells
T3 sequence (Q9NSA0 1-550): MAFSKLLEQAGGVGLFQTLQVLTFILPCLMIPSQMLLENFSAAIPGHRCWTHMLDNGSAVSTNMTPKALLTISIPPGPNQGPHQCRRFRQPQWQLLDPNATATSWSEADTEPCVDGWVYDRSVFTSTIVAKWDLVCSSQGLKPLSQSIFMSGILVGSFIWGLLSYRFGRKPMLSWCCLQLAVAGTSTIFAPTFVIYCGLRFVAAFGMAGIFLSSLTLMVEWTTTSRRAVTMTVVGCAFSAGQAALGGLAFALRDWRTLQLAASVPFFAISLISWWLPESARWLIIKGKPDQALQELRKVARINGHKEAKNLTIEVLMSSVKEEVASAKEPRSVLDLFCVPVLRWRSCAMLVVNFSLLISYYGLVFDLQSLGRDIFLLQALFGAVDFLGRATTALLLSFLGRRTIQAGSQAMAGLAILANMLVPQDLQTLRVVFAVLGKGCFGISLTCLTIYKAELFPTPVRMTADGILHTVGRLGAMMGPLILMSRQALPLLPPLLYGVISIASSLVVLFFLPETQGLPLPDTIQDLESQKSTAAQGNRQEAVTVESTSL
Experimental: as §2
as §1, with “point. […]” for “point.”
Figure 5 Inhibitory effects of the nine test compounds on hOAT4-mediated ES uptake. Ten minute uptake of [^3H]ES (1 μM) was measured in CHO-hOAT4 cells in the absence and presence of test compounds (50 μM) or ES (1000 μM for self-inhibition). Data represent hOAT4-mediated transport specifically, that is, data have been corrected for background ES accumulation measured in empty vector transfected cells. Values are mean ± S.D. of triplicate values from a representative experiment. * denotes P < 0.05, and *** denotes P < 0.001 as determined by one-way ANOVA followed by Dunnett's t-test.

[4] = human subjects, cited from earlier work
hOAT3 (SLC22A8) [5] = biological target: T2, hOAT3 (SLC22A8); design: method as in PMID 22877817; details: linear uptake for initial 1 min; cited from earlier work
[6] = 50 μM test compound, 1 μM [3H]PAH (50-fold excess), 10 min uptake
[7] = 50 μM test compound, 1 μM [3H]ES, 10 min uptake, CHO-hOAT4 cells
[8] = 50 μM test compound, 10 min uptake

inhibition at 50 µM (hOAT1 (SLC22A6) [2]; [6]) [%]	inhibition at 50 µM (hOAT3 (SLC22A8) [3]) [%]	effect on hOAT4-mediated ES uptake (in words) (hOAT4 (SLC22A11); [7])	effect on hOAT3-mediated ES uptake (in words) (hOAT3 (SLC22A8) [3]; 1 μM [3H]ES)	effect on hOAT1-mediated PAH uptake (in words) (hOAT1 (SLC22A6) [2]; [8])	Structure (SMILES)	other results
64	41				O=C(/C=C/c1ccc(O)c(O)c1)O[C@@H]1C[C@@](OC(=O)/C=C/c2ccc(O)c(O)c2)(C(=O)O)C[C@@H](O)[C@@H]1O [1,3-Dicaffeoylquinic acid, 1,3-dicaffeoylquinic acid]	IC50 (hOAT1 (SLC22A6) [1]): 1200 ± 400 nM; Ki (hOAT1 (SLC22A6) [2]): 1100 ± 200 nM
22	30 to 35	significant stimulation of ES uptake			O=C(C=Cc1ccc(O)c(O)c1)OC1CC(OC(=O)C=Cc2ccc(O)c(O)c2)(C(=O)O)CC(O)C1O (stereo not shown) [1,5-Dicaffeoylquinic acid, 1,5-dicaffeoylquinic acid]	Cmax ([4]; oral, 600 mg): 140 nM
		significant stimulation of ES uptake	failed to produce significant inhibition		CC1(C)[C@@H](O)CC[C@]2(C)[C@H]3C(=O)C=C4[C@@H]5C[C@@](C)(C(=O)O)CC[C@]5(C)CC[C@@]4(C)[C@]3(C)CC[C@@H]12 [18β-glycyrrhetinic acid]	IC50 (hOAT1 (SLC22A6) [1]): 2700 ± 200 nM; inhibition of hOAT1-mediated PAH uptake (hOAT1 (SLC22A6) [2]; [6]): 56%; Ki (hOAT1 (SLC22A6) [2]): 2500 ± 200 nM; Cmax ([4]; oral, 130–144 mg glycyrrhizin, assuming plasma 18α- : 18β-glycyrrhetinic acid about 1 : 3): 110 to 2900 nM
			failed to produce significant inhibition	no inhibition	Oc1cc(O)c2c(c1)O[C@H](c1ccc(O)c(O)c1)[C@@H](O)C2 [Catechin]	inhibition at 50 µM (hOAT4 (SLC22A11); [7]): 32%; IC50 (hOAT4 (SLC22A11); inferred from level of inhibition at 50 μM, no kinetic study, read-out: IC50 on hOAT4 transport activity): > 50000 nM
					C[C@]12CC[C@@H]3c4ccc(OS(=O)(=O)O)cc4CC[C@H]3[C@@H]1CCC2=O [ES, estrone sulfate, reference compound]	inhibition of hOAT4-mediated ES uptake (self-inhibition) (hOAT4 (SLC22A11); unlabeled ES 1000 μM, 1 μM [3H]ES, 10 min uptake, CHO-hOAT4 cells): > 96%; K m of ES uptake in hOAT3 expressing cells (hOAT3 (SLC22A8) [5]): 14.5 µM
	30 to 35			no inhibition	Oc1cc(O)c2c(c1)O[C@H](c1ccc(O)c(O)c1)[C@H](O)C2 [Epicatechin]	Cmax ([4]; oral, 37 mg): 200 nM
	30 to 35				CCCCCCC=CCCCCCCCc1cccc(O)c1C(=O)O [ginkgolic acid (15 : 1)]	
42	41				CCCCCCC=CCCCCCCCCCc1cccc(O)c1C(=O)O [ginkgolic acid (17 : 1)]	
					CCCN(CCC)S(=O)(=O)c1ccc(C(=O)O)cc1 [probenecid, reference compound]	inhibition at 1000 µM (hOAT3 (SLC22A8) [3]; probenecid 1000 μM, 1 μM [3H]ES): > 96%

Structure (SMILES)	inhibition at 50 µM (hOAT1 (SLC22A6) [2]; [6]) [%]	inhibition at 50 µM (hOAT3 (SLC22A8) [3]) [%]	effect on hOAT4-mediated ES uptake (in words) (hOAT4 (SLC22A11); [7])	effect on hOAT3-mediated ES uptake (in words) (hOAT3 (SLC22A8) [3]; 1 μM [3H]ES)	effect on hOAT1-mediated PAH uptake (in words) (hOAT1 (SLC22A6) [2]; [8])	other results
C[C@H]1[C@H](C)CC[C@]2(C(=O)O)CC[C@]3(C)C(=CC[C@@H]4[C@@]5(C)CC[C@H](O)C(C)(C)[C@@H]5CC[C@]43C)[C@H]12 [Ursolic acid]			without effect	failed to produce significant inhibition; also recorded: without effect	significant stimulation of uptake	Cmax ([4]; i.v., 186 mg): 7400 nM
